Among the data in patent US20120309796A1, “BENZOCYCLOHEPTENE ACETIC ACIDS” (priority 2011, published 2012) are IC50 values, retold here.

Each structure is given as a SMILES string.

The target of assay [1] is T1, human CRTH2 (Homo sapiens, UniProt Q9Y5Y4).
T1 sequence (Q9Y5Y4 1-395): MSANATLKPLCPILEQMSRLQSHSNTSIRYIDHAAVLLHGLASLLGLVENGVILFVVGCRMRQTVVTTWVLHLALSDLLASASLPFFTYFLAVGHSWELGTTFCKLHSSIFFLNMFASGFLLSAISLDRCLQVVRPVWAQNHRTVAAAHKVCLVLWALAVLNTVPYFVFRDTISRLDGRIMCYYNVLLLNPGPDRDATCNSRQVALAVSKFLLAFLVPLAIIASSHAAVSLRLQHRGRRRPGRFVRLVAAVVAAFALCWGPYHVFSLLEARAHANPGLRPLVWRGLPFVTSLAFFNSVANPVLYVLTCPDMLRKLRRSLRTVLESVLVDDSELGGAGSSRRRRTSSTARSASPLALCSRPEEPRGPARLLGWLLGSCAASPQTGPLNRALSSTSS
Description: Calcium Flux Assay Using Fluorometric Imaging Plate Reader (FLIPR). Type of assay: cell-based. The note with it: CHO-K1 cells with G-alpha 16 and human CRTH2; inhibition of DK-PGD2 ligand-induced Ca2+ flux. Also on record: expressed in transfected cells; host or cells: CHO-K1 previously transfected with G-alpha 16. As for the experimental part: CHO-K1 cells previously transfected with G-alpha 16 were subsequently transfected with the human CRTH2 receptor and the neomycin resistance gene. Following selection in 800 μg/mL G418 (geneticin), individual clones were assayed for their receptor expression based on staining with an anti human CRTH2 IgG, followed by assaying for their response to 13,14-dihydro-15-keto Prostaglandin D2 (DK-PDG2) (ligand) in the Ca^2+ Flux assay. Positive clones were then cloned by limiting dilution cloning. The transfected cells were cultured in Ham's F-12 medium supplemented with 10% fetal bovine serum, 2 mM glutamine, 100 U/mL penicillin/100 μg/mL streptomycin, 200 μg/mL hygromycin B, and 800 μg/mL G418 (geneticin). Cells were harvested with trypsin-EDTA (trypsin-ethylenediaminetetraacetic acid) and counted using ViaCount® reagent (from Guava Technologies, Inc. which contains two DNA-binding dyes that enable the reagent user to distinguish between viable and non-viable cells). The cell suspension volume was adjusted to 2.5×10^5 cells/mL with complete growth media. Aliquots of 50 μL were dispensed into BD Falcon™ 384 well black/clear microplates (from BD Biosciences, a division of Becton, Dickinson and Company) and the microplates were placed in a 37° C. CO2 incubator overnight. The following day, the microplates were used in the assay.
Loading Buffer containing dye (from the FLIPR® Calcium 3 Assay Kit from Molecular Devices, a division of MDS Analytical Technologies and MDS Inc.) was prepared by dissolving the contents of one bottle into 200 mL Hank's Balanced Salt Solution containing 20 mM HEPES (4-(2-hydroxyethyl)-1-piperazineethanesulfonic acid) and 2.5 mM probenecid. Growth media was removed from the cell plates and 25 μL of Hank's Balanced Salt Solution (HBSS) containing 20 mM HEPES, 0.05% BSA and 2.5 mM probenecid was added to each well followed by 25 μL of diluted dye using a Multidrop dispenser. The plates were then incubated for 1 hour at 37° C.
During the incubation, test compound plates were prepared by adding 90 μL of HBSS/20 mM HEPES/0.005% BSA buffer to the 2 μL of serial diluted compounds. To prepare serial diluted compounds, 20 mM stocks of compounds were dissolved in 100% DMSO. The compound dilution plate was set up as follows: well #1 received 5 μL of compound plus 10 μL of DMSO. Wells 2-10 received 10 μL of DMSO. 5 μL was mixed and transferred from well #1 into well #2. 1:3 serial dilutions were continued out 10 steps. 2 μl of diluted compound was transferred into duplicate wells of a 384 well “assay plate” and then 90 μL of buffer was added.
After incubation, both the cell and “assay plate” plates were brought to the fluorometric imaging plate reader (FLIPR®) and 20 μL of the diluted compounds were transferred to the cell plates by the FLIPR®. Plates were then incubated for 1 hour at room temperature. After the 1 hour incubation, plates were returned to the FLIPR® and 20 μL of 4.5× concentrated ligand was added to the cell plates. During the assay, fluorescence readings were taken simultaneously from all 384 wells of the cell plate every 1.5 seconds. Five readings were taken to establish a stable baseline, then 20 μL of sample was rapidly (30 μL/sec) and simultaneously added to each well of the cell plate. The fluorescence was continuously monitored before, during and after sample addition for a total elapsed time of 100 seconds. Responses (increase in peak fluorescence) in each well following agonist addition were determined. The initial fluorescence reading from each well, prior to ligand stimulation, was used as a zero baseline value for the data from that well. The responses were expressed as % inhibition of the buffer control. […]
Background: Calcium flux is commonly read through the fluorescence of an indicator in the cells.

Assay [2] addresses T1, human CRTH2. Description: Human CRTH2 Receptor Binding Assay (whole cell, [3H]ramatroban competition). Also on record: two mammalian expression vectors that harbored human CRTH2 and G-alpha16 cDNAs; expressed in transfected cells. As to conditions: CHO-K1 cells expressing human CRTH2 and G-alpha16; 20 nM [3H]ramatroban; 1 hour, room temperature. An excerpt: A whole cell receptor binding assay using [^3H]ramatroban as the competing radioactive ligand was employed to evaluate the compound binding activity to human CRTH2. The radioactive ligand [^3H]ramatroban was synthesized according to Sugimoto et. al. (Eur. J. Pharmacol. 2005, 524, 30-37) to a specific activity of 42 Ci/mmol
A cell line stably expressing human CRTH2 was established by transfecting CHO-K1 cells with two mammalian expression vectors that harbored human CRTH2 and G-alpha16 cDNAs, respectively, using FuGene® 6 transfection reagent (from Roche). Stable clones expressing CRTH2 were selected by staining each clone with BM16 (BD Pharmingen™ from BD Biosciences, a division of Becton, Dickinson and Company), which is a rat monoclonal antibody to human CRTH2. The cells were maintained as monolayer cultures in Ham's F-12 medium containing 10% fetal bovine serum, 100 units/mL penicillin, 100 μg/mL streptomycin, 2 mM glutamine, 0.5 mg/mL G418 (geneticin) for CRTH2, and 0.2 mg/mL hygromycin-B (for G-alpha 16). For whole cell receptor binding assay, the monolayer cells were rinsed once with PBS (phosphate buffered saline), dissociated using ethylenediaminetetraacetate (Versene™ EDTA from Lonza Inc.), and suspended in PBS containing 10 mM MgCl2 and 0.06% BSA (bovine serum albumin) at 1.5×10^6 cells/mL.
The binding reactions (0.2 mL) were performed in 96-well plates at room temperature in PBS containing 1.5×10^5 cells, 10 mM MgCl2, 0.06% BSA, 20 nM [^3H]ramatroban, and test compound at various concentrations. After 1 hour of binding reactions, the cells were harvested on GF™/B filter microplates (microtiter plates with embedded glass fiber from PerkinElmer, Inc.) and washed 5 times with PBS using a Filtermate™ Harvester (a cell harvester that harvests and washes cells from microplates from PerkinElmer, Inc.). The radioactivities bound to the cells were determined using a microplate scintillation counter (TopCount® NXT, from PerkinElmer, Inc.) after adding 50 μL of Microscint™ 20 scintillation fluid (from PerkinElmer, Inc.) to each well of the filter plates. The radioactivity from non-specific binding was determined by replacing compound with 10 μM of 15(R)-15-methyl PGD2 (from Cayman Chemical Company) in the reaction mixtures. The radioactivity bound to the cells in the absence of compound (total binding) was determined by replacing compound with 0.25% of DMSO (dimethyl sulfoxide) in the reaction mixture. Specific binding data were obtained by subtracting the radioactivity of non-specific binding from each binding data.
The IC50 value is defined as the concentration of the tested compound that is required for 50% inhibition of total specific binding. In order to calculate the IC50 value, the percent inhibition data were determined for 7 concentrations for each compound. The percent inhibition for a compound at each concentration was calculated according to the following formula, [1-(specific binding in the presence of compound)/(total specific binding)]×100. The IC50 value was then obtained by fitting the percent inhibition data to a sigmoidal dose-response (4 parameter logistic) model in the XLfit® software Excel add-in program [from ID Business Solutions Ltd., model 205, where F(x)=(A+(B−A)/(1+((C/x)̂D)))].

As to `CC(C)c1cccc(-c2ccc(S(=O)(=O)NC3CCCCc4c(OCC(=O)O)cccc43)nc2)c1` (stereo not drawn) [Example 31, {5-[5-(3-Isopropyl-phenyl)-pyridine-2-sulfonylamino]-6,7,8,9-tetrahydro-5H-benzocyclohepten-1-yloxy}-acetic acid], the values for the IC50 in assay [1] and in assay [2] were 476 nM and 26.7 nM, respectively.

Take `O=C(O)COc1cccc2c1CCCCC2NS(=O)(=O)c1cc(Br)cc(C(F)(F)F)c1` (stereo not drawn) [Example 8, [5-(3-Bromo-5-trifluoromethyl-benzenesulfonylamino)-6,7,8,9-tetrahydro-5H-benzocyclohepten-1-yloxy]-acetic acid]: the IC50 (usually the concentration at which inhibition is half-maximal) in assay [1] was found to be 36.6 nM; in assay [2], 47 nM. Turning to `O=C(O)COc1cccc2c1CCCCC2NS(=O)(=O)c1ccc(-c2cccc(C(F)(F)F)c2)cn1` (stereo not drawn) [Example 33, {5-[5-(3-Trifluoromethyl-phenyl)-pyridine-2-sulfonylamino]-6,7,8,9-tetrahydro-5H-benzocyclohepten-1-yloxy}-acetic acid], the results for the IC50 in assay [1] and in assay [2] were 29.2 nM and 178 nM, respectively. With `O=C(O)COc1cccc2c1CCCCC2NS(=O)(=O)c1ccc(-c2cccc(CCO)c2)cn1` (stereo not drawn) [Example 37, (5-{5-[3-(2-Hydroxy-ethyl)-phenyl]-pyridine-2-sulfonylamino}-6,7,8,9-tetrahydro-5H-benzocyclohepten-1-yloxy)-acetic acid], the half-inhibitory concentration (IC50) stood at 214 nM in assay [1] and 17 nM in assay [2]. `CS(=O)(=O)c1cccc(-c2ccc(S(=O)(=O)NC3CCCCc4c(OCC(=O)O)cccc43)cc2)c1` (stereo not drawn) [Example 29, [5-(3′-Methanesulfonyl-biphenyl-4-sulfonylamino)-6,7,8,9-tetrahydro-5H-benzocyclohepten-1-yloxy]-acetic acid]: the results for the IC50 in assay [1] and in assay [2] were 60.6 nM and 9.1 nM, respectively. In the same order, the values of `CC(C)c1cccc(-c2cccc(S(=O)(=O)NC3CCCCc4c(OCC(=O)O)cccc43)c2)c1` (stereo not drawn) [Example 41, [5-(3′-Isopropyl-biphenyl-3-sulfonylamino)-6,7,8,9-tetrahydro-5H-benzocyclohepten-1-yloxy]-acetic acid] are greater than 5000 nM and 226 nM. In the same order, the values of `O=C(O)COc1cccc2c1CCCCC2NS(=O)(=O)c1ccc(-c2ccccc2)cc1` (stereo not drawn) [Example 4, [5-(Biphenyl-4-sulfonylamino)-6,7,8,9-tetrahydro-5H-benzocyclohepten-1-yloxy]-acetic acid] are 255 nM and 33.6 nM. `Cc1ccc(-c2cccc(S(=O)(=O)N(C)C3CCCCc4c(OCC(=O)O)cccc43)c2)cc1` (stereo not drawn) [Example 40, {5-[Methyl-(4′-methyl-biphenyl-3-sulfonyl)-amino]-6,7,8,9-tetrahydro-5H-benzocyclohepten-1-yloxy}-acetic acid] gave a half-maximal inhibitory concentration (IC50) in assay [2] of 555 nM. The same measure, in the same setting: with `CC(C)c1cccc(-c2ccc(S(=O)(=O)N(C)C3CCCCc4c(OCC(=O)O)cccc43)cc2)c1` (stereo not drawn) [Example 20, {5-[(3′-Isopropyl-biphenyl-4-sulfonyl)-methyl-amino]-6,7,8,9-tetrahydro-5H-benzocyclohepten-1-yloxy}-acetic acid] the figure was 106 nM; with `CC(C)c1cccc(-c2cccc(S(=O)(=O)N(C)C3CCCCc4c(OCC(=O)O)cccc43)c2)c1` (stereo not drawn) [Example 42, {5-[(3′-Isopropyl-biphenyl-3-sulfonyl)-methyl-amino]-6,7,8,9-tetrahydro-5H-benzocyclohepten-1-yloxy}-acetic acid], 845 nM. For `CSc1cccc(-c2ccc(S(=O)(=O)N(C)C3CCCCc4c(OCC(=O)O)cccc43)cc2)c1` (stereo not drawn) [Example 28, {5-[Methyl-(3′-methylsulfanyl-biphenyl-4-sulfonyl)-amino]-6,7,8,9-tetrahydro-5H-benzocyclohepten-1-yloxy}-acetic acid], the IC50 in assay [2] worked out at 603 nM. Same read-out and setting: the figure for `O=C(O)COc1cccc2c1CCCCC2NS(=O)(=O)c1cc(F)cc(C(F)(F)F)c1` (stereo not drawn) [Example 6, [5-(3-Fluoro-5-trifluoromethyl-benzenesulfonylamino)-6,7,8,9-tetrahydro-5H-benzocyclohepten-1-yloxy]-acetic acid] is 171 nM. `Cc1cncc(-c2ccc(S(=O)(=O)N(C)C3CCCCc4c(OCC(=O)O)cccc43)cc2)c1` (stereo not drawn) [Example 26, (5-{Methyl-[4-(5-methyl-pyridin-3-yl)-benzenesulfonyl]-amino}-6,7,8,9-tetrahydro-5H-benzocyclohepten-1-yloxy)-acetic acid]: the half-maximal inhibitory concentration (IC50) in assay [2] worked out at 1500 nM. Still for that read-out and setting: with `O=C(O)COc1cccc2c1CCCCC2NS(=O)(=O)c1cc(C(F)(F)F)cc(C(F)(F)F)c1` (single isomer, unassigned) [Example 45, [5-(3,5-Bis-trifluoromethyl-benzenesulfonylamino)-6,7,8,9-tetrahydro-5H-benzocyclohepten-1-yloxy]-acetic acid] the figure was 1490 nM.
